Results on 3 molecules are retold here after PMC4689404, “2-Benzazolyl-4-Piperazin-1-Ylsulfonylbenzenecarbohydroxamic Acids as Novel Selective Histone Deacetylase-6 Inhibitors with Antiproliferative Activity” (PLoS ONE, 2015).

Assay [1] has as its system epigenetically silenced GFP transgene in LDR cells. Description: locus derepression (LDR) assay, GFP induction. It is filed as cell-based. As for the experimental part:
LDR cells were maintained in DMEM with L-glutamine and high glucose, 1 mM sodium pyruvate, 0.1 mM MEM non-essential amino acids, 1% v/v penicillin-streptomycin and 10% heat inactivated FBS. Cells were seeded on glass bottom chambers at low-medium density and allowed to attach overnight. Compounds were then added for 24h at the indicated dose and cells were imaged under a fluorescent microscope equipped with a camera using a 20 or 40X objective. All images shown were exposed for identical time.

Assay [2] addresses T1, partially purified HDAC1 from mouse A20 cells (Mus musculus, UniProt O09106).
T1 construct: from mouse A20 cells was used as enzyme source; endogenous in cells; host or cells: mouse A20 cells
Briefly: HDAC1 activity assay, partially purified enzyme, [3H]acetate-prelabeled histones. The assay is classed as biochemical. The text has this: For inhibition assays, partially purified HDAC1 (70–80 fold enriched relative to crude samples) from mouse A20 cells was used as enzyme source. HDAC1 activity was purified by a combination of anion exchange chromatography (Mono Q), affinity chromatography (Poly-lysin agarose, Heparin Sepharose) and TSK size exclusion chromatography (Jesacher and Loidl, unpublished). HDAC1 protein was identified by immunoblotting using anti mouse HDAC1 antibodies (collaboration with Zymed Laboratories, Inc., San Francisco, California, USA). HDAC activity was determined as described by Sendra et al., [20] using [^3H]acetate-prelabeled chicken reticulocyte histones as substrate. 50 μL of mouse HDAC1 were incubated with different concentrations of compounds for 10 min on ice and 10 μL of total [^3H] acetate pre-labeled chicken reticulocyte histones (4 mg/mL) were added, resulting in a concentration of 41 μM. This mixture was incubated at 37°C for 1 h. The reaction was stopped by addition of 50 μL of 1 M HCl/0.4 M acetylacetate and 1 mL ethylacetate. After centrifugation at 10000 x g for 5 min an aliquot of 600 μL of the upper phase was counted for radioactivity in 3 mL liquid scintillation cocktail.

For assay [3], the target named is T2, recombinant HDAC1 (Homo sapiens, UniProt Q13547).
T2 construct: purchased Epigenetek
T2 sequence (Q13547 whole entry): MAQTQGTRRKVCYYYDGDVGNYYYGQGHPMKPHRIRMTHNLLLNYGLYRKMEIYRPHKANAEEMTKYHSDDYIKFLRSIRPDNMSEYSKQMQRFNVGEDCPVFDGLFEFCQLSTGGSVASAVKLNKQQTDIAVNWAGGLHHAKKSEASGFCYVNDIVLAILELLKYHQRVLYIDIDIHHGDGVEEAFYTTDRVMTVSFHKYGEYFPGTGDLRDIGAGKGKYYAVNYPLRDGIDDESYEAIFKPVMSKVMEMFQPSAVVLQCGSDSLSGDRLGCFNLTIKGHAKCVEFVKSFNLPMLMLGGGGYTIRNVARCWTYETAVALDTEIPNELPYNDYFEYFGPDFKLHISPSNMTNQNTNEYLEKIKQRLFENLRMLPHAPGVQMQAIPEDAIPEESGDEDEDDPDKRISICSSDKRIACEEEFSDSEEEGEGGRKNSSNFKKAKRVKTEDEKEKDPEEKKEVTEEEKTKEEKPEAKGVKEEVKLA
Description: comparative HDAC inhibition assay (Millipore fluorometric kit). It is filed as biochemical. Particulars: recombinant HDAC1, fluorometric substrate; Table 4. The procedure:
(§1) For the direct comparison of HDAC1 vs. HDAC6 inhibition, HDAC activity was analyzed using the HDAC Assay Kit from Millipore (17–356). Briefly, recombinant HDAC1 or recombinant HDAC6 (both purchased from Epigenetek, Purity of HDAC1 is more than 60% and purity HDAC6 is more than 85%). was incubated with the fluorometric HDAC substrate according to the manufacturer’s protocol in the presence of DMSO vehicle or increase compound doses. In a secondary activator reaction, the fluorophore is only cleaved from the deacetylated substrate, allowing for quantification. Fluorescence was quantified on a FLUOstar-Optima or a FLUOstar Omega plate reader (BMG Biosciences).

Assay [4] has as its target T3, recombinant HDAC6 (Homo sapiens, UniProt Q9UBN7).
T3 construct: purchased Epigenetek
T3 sequence (Q9UBN7 1-1215): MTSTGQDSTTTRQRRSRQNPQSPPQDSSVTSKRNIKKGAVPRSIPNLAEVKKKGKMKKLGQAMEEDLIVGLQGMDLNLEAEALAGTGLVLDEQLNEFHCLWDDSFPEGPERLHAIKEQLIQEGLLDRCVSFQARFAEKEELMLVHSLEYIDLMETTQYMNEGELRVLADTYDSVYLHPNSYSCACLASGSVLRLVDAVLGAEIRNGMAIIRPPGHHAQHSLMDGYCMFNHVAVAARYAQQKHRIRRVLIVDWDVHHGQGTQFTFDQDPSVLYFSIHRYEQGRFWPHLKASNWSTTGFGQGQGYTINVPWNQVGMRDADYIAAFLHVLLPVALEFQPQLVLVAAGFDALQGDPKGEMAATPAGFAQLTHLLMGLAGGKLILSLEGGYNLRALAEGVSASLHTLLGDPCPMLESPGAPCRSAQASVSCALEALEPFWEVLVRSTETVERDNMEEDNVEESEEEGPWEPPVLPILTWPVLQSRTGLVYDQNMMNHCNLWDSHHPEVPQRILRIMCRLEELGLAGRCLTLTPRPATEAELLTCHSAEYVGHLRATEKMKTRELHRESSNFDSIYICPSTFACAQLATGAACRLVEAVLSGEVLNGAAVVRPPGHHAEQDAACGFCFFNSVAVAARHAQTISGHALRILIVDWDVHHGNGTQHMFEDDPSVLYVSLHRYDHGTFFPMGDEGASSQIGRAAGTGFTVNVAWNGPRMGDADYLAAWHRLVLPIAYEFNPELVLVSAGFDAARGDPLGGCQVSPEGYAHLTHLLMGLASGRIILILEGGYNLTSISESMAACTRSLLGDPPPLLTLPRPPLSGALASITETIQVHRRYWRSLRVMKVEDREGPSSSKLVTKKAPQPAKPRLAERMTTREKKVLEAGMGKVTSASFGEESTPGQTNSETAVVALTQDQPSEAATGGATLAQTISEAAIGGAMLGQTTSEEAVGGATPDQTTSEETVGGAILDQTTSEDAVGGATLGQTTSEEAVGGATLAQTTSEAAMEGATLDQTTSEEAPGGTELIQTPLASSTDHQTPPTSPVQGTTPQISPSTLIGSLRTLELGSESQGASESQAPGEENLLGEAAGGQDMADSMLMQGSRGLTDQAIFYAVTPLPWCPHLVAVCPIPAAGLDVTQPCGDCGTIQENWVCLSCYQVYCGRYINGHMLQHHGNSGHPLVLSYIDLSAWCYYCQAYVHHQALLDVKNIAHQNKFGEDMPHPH
The assay is described as above. It is filed as biochemical. As for the experimental part: as §1

The subject of assay [5] is HCC4017. Briefly: MTS viability assay. The assay is classed as cell-based, human. Particulars: for IC50: Homo sapiens, HCC4017, 96 h, Patient A cancer line, MTS, 4 days, read-out: Antiproliferative activity IC50, HCC4017; for Selectivity (HBEC-30KT vs HCC4017): Patient A. The procedure: (§2) Immortalized normal human bronchial epithelial cells (also provided by Dr. John D. Minna) were cultured in KSFM supplemented with pituitary extract and EGF. For viability assays, cells were plated on 96 well plates and grown overnight. Cells were then exposed to increasing doses of the indicated compounds for 4 days and their viability assayed using the Promega Cell Titer 96 AQueous One kit per the manufacturer’s protocol. All doses were tested in 4–8 replicates. IC50 values were calculated using the in-house software DIVISA.
(In general: Tetrazolium dyes change colour on reduction, which living cells bring about.)

The subject of assay [6] is HCC4018. Description: MTS viability assay. The assay is classed as cell-based, human. Particulars: for IC50: Homo sapiens, 96 h, Patient B cancer line, MTS, 4 days, read-out: Antiproliferative activity IC50, HCC4018; for Selectivity (HBEC-34KT vs HCC4018): Patient B. The procedure:
as §2

[7] abbreviates: Table 3, partially purified HDAC1, read-out: HDAC1 IC50.
The mark [8] stands for this setting: Table 3, read-out: HDAC6 pIC50 (converted).
Where [9] appears, read: recombinant HDAC6, fluorometric substrate, Table 4, read-out: HDAC6 IC50.

Like-named read-outs stand apart in the source and are kept apart here.

T1 sequence (O09106 whole entry): as the sequence (Q13547 whole entry) above, with R8K, D399E, E424D counted along it

Consider `Cn1c(N2CCN(S(=O)(=O)c3ccc(C(=O)NO)cc3)CC2)nc2ccccc21` [Compound 9b, 4-[4-(1-methylbenzimidazol-2-yl)piperazin-1-yl]sulfonylbenzenecarbohydroxamic acid], for which, in assay [1] (compound at 20μM, fluorescence microscopy), the “activation of the silenced GFP gene (GFP expression)” value is “robust GFP expression”. The IC50 in assay [2] (setting [7]) was 12400 nM; in assay [2] (partially purified HDAC1 from mouse A20 cells, Fig 4 and text, read-out: HDAC1 Inhibit (IC50)) it was ~12000 nM; in assay [3], 3700 ± 1700 nM; in assay [4] (setting [8]) it was 100 nM; in assay [4] (setting [9]), 130 ± 70 nM; in assay [5], 1490 nM. In addition, the IC50 in assay [6] was 6100 nM. The “Selectivity Index HDAC1/HDAC6” value in assay [4] (Table 4) is 28.4. For the same molecule, the “Selectivity (HBEC-30KT vs HCC4017)” value in assay [5] is > 6.71. For the same molecule, the “Selectivity (HBEC-34KT vs HCC4018)” value in assay [6] is given as > 1.64.
Take `O=C(NO)c1ccc(S(=O)(=O)N2CCN(c3nc4ccccc4o3)CC2)cc1` [Compound 9c, 4-(4-Benzoxazol-2-yl-piperazin-1-sulfonyl)-N -hydroxy-benzamid]: the “GFP induction / activity in the LDR assay” value in assay [1] is recorded as “high level of GFP induction”. Further, the IC50 in assay [2] (setting [7]) was 5700 nM; in assay [3], 920 ± 160 nM; in assay [4] (setting [8]), 200 nM; in assay [4] (setting [9]), 220 ± 40 nM; in assay [5], 1240 nM; in assay [6] it was 5050 nM. Also, in assay [4] (Table 4), the “Selectivity Index HDAC1/HDAC6” value was found to be 4.3. In addition, the “Selectivity (HBEC-30KT vs HCC4017)” value in assay [5] is reported as > 8.06. Also, in assay [6], the “Selectivity (HBEC-34KT vs HCC4018)” value is given as > 1.98.
Take `O=C(NO)c1ccc(S(=O)(=O)N2CCN(c3nc4ccccc4s3)CC2)cc1` [Compound 9d, 4-(4-Benzothiazol-2-yl-piperazin-1-sulfonyl)-N -hydroxy-benzamid]: the “GFP induction / activity in the LDR assay” value in assay [1] is recorded as “high level of GFP induction”. For the same molecule, the IC50 in assay [2] (setting [7]) was 4800 nM; in assay [3], 900 ± 450 nM; in assay [4] (setting [8]), 100 nM; in assay [4] (setting [9]), 130 ± 20 nM; in assay [5], 1630 nM; in assay [6], 4000 nM. Further, the “Selectivity (HBEC-30KT vs HCC4017)” value in assay [5] is 3.29. The “Selectivity (HBEC-34KT vs HCC4018)” value in assay [6] is reported as 2.06.
